Results published in paper PMC3779154, “Identification of Therapeutic Candidates for Chronic Lymphocytic Leukemia from a Library of Approved Drugs” (PLoS ONE, 2013).
Like-named read-outs stand apart in the source and are kept apart here.

Key:
[1] = tested on: normal and solid tumor cell lines
[2] = tested on: ME-180 human cervical carcinoma cell line; assay: Cell viability assay, ME-180 cells (NPC library profiling)
Source text: Based on the definition of actives, inactives and inconclusive mentioned above, compounds were further clustered hierarchically using Spotfire DecisionSite 8.2 (Spotfire Inc., Cambridge, MA) based on their activity outcomes from the primary screen across a wide variety of cell viability assays against different cell lines or primary patient cells. Each compound was converted into an integer which represents its activity outcome in each cell viability assay. […] Integer 2 represents compounds in “inconclusive” category which is corresponding to light red in the heat map. […] Compounds not tested in the assay were labeled as 4 and shown as grey in the heat map.

[3] = tested on: human thioredoxin reductase; design: method as in PMID 19665452; settings: NADPH-reduced form; cited from earlier work
[4] = tested on: lymphocytes from normal donors; settings: for potency shift between CLL and normal donor samples: fresh cells, normal IC50 vs CLL IC50
Description: (§3) Cell viability was measured using a luciferase-based ATP quantitation assay (CellTiter-Glo^TM, Promega). The intracellular ATP content indicates the number of viable (i.e. metabolically competent) cells after compound treatment. Four µL of CLL cells resuspended in AIM medium at 1,330,000 cells/ml, were dispensed into each well of white, solid bottom, 1536-well tissue culture–treated plates using a Multidrop-Combi dispenser and incubated overnight. After that, a total of 23 nL of compounds at 8 selected concentrations from the NPC library or positive control (10 mM stock of doxorubicin hydrochloride) in DMSO was transferred to each well of the assay plate using a pintool (Kalypsys, San Diego, CA), and the plates were further incubated at 37 °C with 5% CO2 for 24 hours to allow the reaction. Then 4µL of CellTilter-Glo luminescent substrate mix was added to each well. The plate was incubated at room temperature for 15 minutes. The plates were measured on a ViewLux plate reader (PerkinElmer) with clear filter.
(§4) These compounds were then re-tested in the cell viability assay using 12 point titrations with concentration ranging from 57 µM to 0.3 nM with 1:3 dilution.
(§5) Fresh primary cells were also obtained from two unaffected normal donors and seven CLL patients whose blood samples were collected within hours of apheresis and which had not been included in our previous experiments.

[5] = tested on: fresh CLL patient lymphocytes; assay: cells; settings: Homo sapiens, Lymphocyte
Description: (§6) Cell viability was measured using a luciferase-based ATP quantitation assay (CellTiter-Glo^TM, Promega). The intracellular ATP content indicates the number of viable (i.e. metabolically competent) cells after compound treatment. […] After that, a total of 23 nL of compounds at 8 selected concentrations from the NPC library or positive control (10 mM stock of doxorubicin hydrochloride) in DMSO was transferred to each well of the assay plate using a pintool (Kalypsys, San Diego, CA), and the plates were further incubated at 37 °C with 5% CO2 for 24 hours to allow the reaction. Then 4µL of CellTilter-Glo luminescent substrate mix was added to each well. The plate was incubated at room temperature for 15 minutes. The plates were measured on a ViewLux plate reader (PerkinElmer) with clear filter. […] The test volume of 5,000 cells/4 μL/well was selected as the final assay condition in cell density tests based on the assay performance statistics: signal/background ratio, coefficient of variation and Z’-factor (data not shown).
as §5

[6] = tested on: caspase-3/7; assay: Caspase-Glo 3/7 activation assay in CLL samples; assay type: cell-based, human; settings: CLL samples, 24 hours, read-out: EC50 caspase-3/7 activity
Description: The effect of selected compounds on caspase activity was measured using a homogeneous luminescent method (Caspase-Glo® 3/7, 8 and 9 kits, Promega, Madison, WI). Briefly in this assay, caspase induced by cells cleaves a pro-luciferin substrate where a tetrapeptide caspase substrate - DEVD (asp-glu-val-asp) is cleaved to free aminoluciferin, which can be used as a substrate by luciferase yielding a bioluminescent signal. The luminescent signal is proportional to the amount of caspase activity present in the cells. Cells were dispensed in culture medium at 5,000/cells/5uL/well in 1536-well white/solid-bottom assay plates. The cells were incubated for overnight at 37°C. The compounds (23nL/well) were added via the pin tool. The treated cells were further incubated for 24 h at 37°C, followed by the addition of the Caspase-Glo 3/7, 8 or 9 reagents at 5uL/well. After a 30 min incubation at room temperature, the luminescence intensity of the assay plates was measured using a ViewLux Plate Reader. The caspase activity was normalized to DMSO control.

[7] = tested on: lymphocytes from normal donors; assay: cells; settings: Homo sapiens, Lymphocyte, read-out: IC50 normal
Description: as §3, §4, §5

[8] = tested on: lymphocytes from normal donors; assay: qHTS luminescent ATP cell viability assay, primary screen, normal donor lymphocytes; settings: differential efficacy or IC50 shift >5-fold
Source text: (§1) Lymphocytes from 13 CLL treatment naïve patients (Table 1 ) and 5 normal donors were obtained by lymphapheresis with written informed consent and isolated by gradient centrifugation using Lymphocyte Separation Medium (MP Biomedicals, Solon, OH) and used fresh or cryopreserved in liquid nitrogen in 10% dimethyl sulfoxide, 90% FCS. CLL patients were consented on the institutional review board (IRB) approved at the National Heart, Lung, and Blood Institute (NHLBI, Office of Clinical Affairs, Bldg 10, CRC. Room 6-5140, Bethesda, Maryland 20892-1608) with protocol 04-H-0012 and samples from normal donors were collected by the Department of Transfusion Medicine, National Institutes of Health (NIH). This study was approved by the IRB mentioned above. Fresh cells were temporally placed on ice and plated for screening within 3 hrs of apheresis. Frozen cells were thawed the night before the assay and incubated in T175 flask in AIM V medium to recover overnight. Analysis of IGHV gene status was performed as described. CLL samples were cultured in AIM V serum free medium (Gibco-Invitrogen, Long Island, NY).
(§2) Compound formatting and qHTS were performed as described previously. The final concentration of the NPC compounds in the 4 µL assay volume ranged from 57 µM to 0.7 nM in 1:5 dilution steps. The positive control plate format was as follows: columns 1 and 3, DMSO only; column 2, doxorubicin, a known cytotoxic chemotherapy agent in a 1:2 dilution series from 10 µM to 5 nM in DMSO; and column 4, doxorubicin at 10 µM in DMSO.
To determine compound activity in the qHTS assay, the concentration-response data for each sample was plotted and modeled by a four parameter logistic fit yielding IC50 and efficacy (maximal response) values as previously described. […] Briefly, raw plate reads for each titration point were first normalized relative to the positive control compound (100%) and DMSO-only wells (basal, 0%), and then corrected by applying a pattern correction algorithm using compound-free control plates (i.e., DMSO-only plates) at the beginning and end of the NPC compound plate stack. […]

[9] = tested on: fresh CLL patient lymphocytes; settings: read-out: IC50 CLL, average of cells from 7 CLL patients, fresh, Figure 5
Description: as §6, §5

[10] = tested on: lymphocytic leukemia P388; design: method as in PMID 6778607; settings: cited from earlier work
[11] = tested on: primary CLL cells; assay: qHTS luminescent ATP cell viability assay (CellTiter-Glo), primary screen, frozen CLL patient cells; assay type: cell-based, human; settings: CLL cells, 24 h, Figure 1
Source text: as §1, §2
To determine compound activity in the qHTS assay, the concentration-response data for each sample was plotted and modeled by a four parameter logistic fit yielding IC50 and efficacy (maximal response) values as previously described. Data normalization and curve fitting were performed using in-house informatics tools. Briefly, raw plate reads for each titration point were first normalized relative to the positive control compound (100%) and DMSO-only wells (basal, 0%), and then corrected by applying a pattern correction algorithm using compound-free control plates (i.e., DMSO-only plates) at the beginning and end of the NPC compound plate stack. […] In brief, Class 1.1 and 1.2 were the highest-confidence complete CRCs containing upper and lower asymptotes with efficacies ≥ 80% and < 80%, respectively. Class 2.1 and 2.2 were incomplete CRCs having only one asymptote with efficacy ≥ 80% and < 80%, respectively.
Compounds from the primary qHTS screen were further classified into three categories according to the quality of curve fit and efficacy.

[12] = tested on: CLL; design: method as in PMID 20603650; settings: oral, single-agent, treated CLL patients; cited from earlier work

tyrothricin
activity in cytotoxicity profiling assays [1]: pan-active | potency variation across cytotoxicity profiling assays [1]: < 5 fold | cytotoxicity in ME-180 cells [2]: prominent cytotoxicity

OC[C@H]1O[C@H]([S-])[C@H](O)[C@@H](O)[C@@H]1O.[Au+] [aurothioglucose]
inhibition of human thioredoxin reductase [3]: strongly inhibit

Nc1ncn([C@@H]2O[C@H](CO)[C@@H](O)[C@H]2O)c(=O)n1 [azacitidine]
difference in efficacy between CLL and unaffected donor samples ([4]; at 19 µM and 57 µM, the two highest testing concentrations): over 40% | potency shift between CLL and normal donor samples [4]: about 3 fold | decreased efficacy to normal B cells ([4]; versus CLL cells): over 40% | IC50 ([5]; read-out: IC50 CLL, average of cells from 7 CLL patients, fresh, Figure 5): 8.1 µM | EC50 ([6]; Homo sapiens): 5.1 µM | IC50 [7]: 15.9 µM | differential cytotoxicity between CLL cells and lymphocytes from normal donors [8]: differential cytotoxicity

CC(=O)OC[C@H]1O[C@@H]([S-])[C@H](OC(C)=O)[C@@H](OC(C)=O)[C@@H]1OC(C)=O.CCP(CC)CC.[Au+] [auranofin]
IC50 [9]: < 1 µM | IC50 ([9]; listed as Auranofin): 0.07 µM | potency shift between CLL and normal donor samples [4]: 30 fold | potency shift between CLL and normal donor samples ([4]; listed as Auranofin): greater than 30 fold | IC50 ([4]; read-out: IC50 normal, average of 2 normal donors, fresh, Figure 5): 2.05 µM | EC50 [6]: < 0.1 µM | life span of mice inoculated with lymphocytic leukemia P388 [10]: effective in increasing the life span | inhibition of human thioredoxin reductase [3]: strongly inhibit | differential cytotoxicity between CLL cells and lymphocytes from normal donors [8]: differential cytotoxicity

O=C(O)CCCc1ccc(N(CCCl)CCCl)cc1 [chlorambucil]
concentration-response curve class [11]: 3 | IC50 ([5]; 24 h): 12 to 30 µM | frequency of complete responses [12]: less than 5%

OCC(S)CS (centres unmarked) [dimercaprol]
IC50 [9]: < 1 µM | IC50 ([9]; listed as Dimercaprol): 0.38 µM | potency shift between CLL and normal donor samples [4]: 50 fold | EC50 ([6]; Homo sapiens): < 0.1 µM | IC50 [7]: 19.4 µM | differential cytotoxicity between CLL cells and lymphocytes from normal donors [8]: differential cytotoxicity
